# Measured values published in patent publication US20240174681A1, “SALT AND CRYSTALLINE FORMS OF FGFR4 INHIBITOR AND USES THEREOF” (BETTA PHARMACEUTICALS CO., LTD, priority 2020, published 2024).
# “Also recorded” adds a separate entry of the source. Read-outs that look alike come from different tables or passages of the source.
# What was measured:
# [1] = Stability determination of crystal forms (HPLC); format: physicochemical; details: for stability (in words): HPLC detection results
# Protocol: Samples and experimental preparation: The amorphous form of the compound represented by Formula I and the crystal form A, maleate crystal form 1, maleate crystal form 2, phosphate crystal form 1 and adipate crystal form 1 of the compound represented by Formula I in appropriate amounts were tested for stability. Samples were taken at different time points separately for HPLC. The packages were polyester/aluminum/polyamide/polyethylene pharmaceutical composite films and bags.
# [2] = Pharmacokinetic test of crystal forms in SD rats, oral; format: in vivo; details: 50 mg/kg, suspension in 0.5% CMC-Na
# Protocol: Drug preparation: A maleate crystal form 1, a phosphate crystal form 1 and an adipate crystal form 1 were weighed separately, and each crystal form was prepared in a 0.5% CMC-Na solution into a to-be-tested suspension, where the final concentration of each compound was 5 mg/mL.
# Test animals: SD rats were randomly divided into three groups, each group including three male rats, and the three groups were called a maleate group, a phosphate group and an adipate group, separately.
# Administration and sample collection: The SD rats in each group were subjected to oral administration at a dosage of 50 mg/kg. Blood collection time: Blood samples were collected in EDTA-K pre-anticoagulation tubes after 0 h (before administration), 0.25 h, 0.5 h, 1 h, 2 hrs, 4 hrs, 7 hrs and 24 hrs. The plasma in each sample was isolated by being centrifuged at 4000 rpm for 10 min at 4° C. Plasma samples were collected and stored at −80° C. for analytical use. The concentration of a to-be-tested compound in plasma samples was analyzed by AB4000 API LC/MS in combination with HPLC, and the pharmacokinetic parameter of the to-be-tested compound was obtained by analyzing the plasma concentration-time data of each animal.
# [3] = Hygroscopicity determination by dynamic vapor sorption (DVS); format: physicochemical; details: for hygroscopicity (in words): under the test conditions; for Weight Gain for Vapor Absorption: DVS, 0% RH to 80% RH
# Protocol: The hygroscopicity of samples (which are multiple crystal forms shown in Table 14) was determined by a dynamic vapor sorption (DVS) meter. The samples were detected for changes of weight gains due to vapor absorption within the range of 0% RH (relative humidity) to 80% RH.
# [4] = test system: human liver cancer cells Hep3B; experiment: Cell proliferation assay (CellTiter-Glo); format: cell-based; details: 96 hrs incubation, CTG, read-out: IC50 of the Compound on Hep3B Cells
# Protocol: The effect of the compound of the present disclosure on the proliferation of human liver cancer cells Hep3B cells was evaluated by an in vitro cell assay. CELL TITER-GLO (CTG) luminescence was used as a detection method in the assay, which can detect the number of living cells by quantitatively determining ATP. Since ATP participates in a variety of enzymatic reactions in organisms, the ATP is an indicator of the metabolism of living cells and its content directly reflects the number of cells and the cell state of cells. In the assay, CellTiter-Glo™ reagent was added to a cell culture medium to measure a luminescence value, the luminescence value is directly proportional to the amount of ATP, and ATP is positively correlated to the number of living cells, so cell viability can be inspected by detecting the ATP content.
# A bottle of Hep3B cells in a logarithmic growth phase was taken, the cells were counted after digestion and resuspension and then inoculated into a 96-well plate after the cell density was adjusted, each well inoculated with 180 μL (1500 cells/well), and the plate was incubated for 24 hrs in a 37° C., 5% CO2 incubator. • (2) Administration to cells […]
# An inhibition rate was calculated according to the luminescence value. […]
# [5] = test system: human liver cancer cells Hep3B xenograft; experiment: Hep3B xenograft tumor model; format: in vivo
# Protocol: BALB/c nu/nu female mice were inoculated with 5×10^6 human liver cancer cells Hep3B subcutaneously in the right anterior scapula, where a volume ratio of a cell suspension to matrigel was 1:1 (0.2/mL/mouse). When an average tumor volume was 158 mm^3, the mice were randomly grouped according to a tumor size. The treatment group was administered with a solution of a to-be-tested compound prepared with an appropriate solvent, and the solvent control group was administered with a blank solvent. During treatment, the tumor volume was measured twice a week, and the tumor weight was determined after a last dose to determine the activity of the compound. A tumor growth inhibition (TGI) rate (%) was calculated by comparing the tumor volumes and weights of the treatment group and the solvent control group. Body weight measurement, as the routine determination of toxicity, has the same frequency as tumor volume measurement.
# [6] = 40° C./75% RH, packaged, day 12
# [7] = 40° C./75% RH, packaged, day 5, listed as Crystal form A of the compound represented by Formula I
# [8] = 40° C./75% RH, packaged, day 20
# [9] = day 0, listed as Crystal form A of the compound represented by Formula I
smiles,measurement,setting,value
C=CC(=O)NC1CCOCC1Nc1ncc2c(n1)-c1cc(C)cnc1N(c1c(Cl)c(OC)cc(OC)c1Cl)C2.O=C(O)C=CC(=O)O (centres unmarked) [Maleate crystal form 1],API Content,"[1]; 40° C./75% RH, packaged, day 5",99.48%
same,Changed Maximum Single Impurity,"[1]; 40° C./75% RH, packaged, day 5",0.26%
same,API Content,[1]; [6],99.34%
same,Changed Maximum Single Impurity,[1]; [6],0.28%
same,stability (in words),[1],relatively good stability
same,API Content,[1]; day 0,99.62%
same,Changed Maximum Single Impurity,[1]; day 0,0.2%
same,AUClast,[2],8355 ng·h/mL
same,Cmax,[2],2713 ng/mL
same,hygroscopicity (in words),[3],low hygroscopicity
C=CC(=O)N[C@H]1CCOC[C@H]1Nc1ncc2c(n1)-c1cc(C)cnc1N(c1c(Cl)c(OC)cc(OC)c1Cl)C2 [Phosphate crystal form 1],API Content,"[1]; 40° C./75% RH, packaged, day 5",99.39%
same,Changed Maximum Single Impurity,"[1]; 40° C./75% RH, packaged, day 5",0.15%
same,API Content,[1]; [6],99.56%
same,Changed Maximum Single Impurity,[1]; [6],0.11%
same,stability (in words),[1],relatively good stability
same,API Content,[1]; day 0,99.32%
same,Changed Maximum Single Impurity,[1]; day 0,0.15%
same,AUC(0-t),"[2]; male, rat, plasma",6890 ng·h/mL
same,Cmax,"[2]; male, rat, plasma, read-out: Cmax",1140 ng/mL
same,Weight Gain for Vapor Absorption,[3],0.19%
same,hygroscopicity (in words),[3],non-hygroscopic; also recorded: low hygroscopicity
C=CC(=O)NC1CCOCC1Nc1ncc2c(n1)-c1cc(C)cnc1N(c1c(Cl)c(OC)cc(OC)c1Cl)C2.O=C(O)C=CC(=O)O (centres unmarked) [Maleate crystal form 2],API Content,"[1]; 25° C./75% RH, open, day 10",98.61%
same,Changed Maximum Single Impurity,"[1]; 25° C./75% RH, open, day 10",1.1%
same,API Content,"[1]; 40° C., open, day 10",99.32%
same,Changed Maximum Single Impurity,"[1]; 40° C., open, day 10",0.48%
same,stability (in words),[1],poor stability
same,API Content,[1]; day 0,99.63%
same,Changed Maximum Single Impurity,[1]; day 0,0.29%
same,Weight Gain for Vapor Absorption,[3],6.64%
same,hygroscopicity (in words),[3],hygroscopic
C=CC(=O)N[C@H]1CCOC[C@H]1Nc1ncc2c(n1)-c1cc(C)cnc1N(c1c(Cl)c(OC)cc(OC)c1Cl)C2 [Amorphous form of the compound represented by Formula I],API Content,"[1]; 25° C./75% RH, open, day 10",97.21%
same,Changed Maximum Single Impurity,"[1]; 25° C./75% RH, open, day 10",1.26%
same,API Content,"[1]; 40° C., open, day 10",97.45%
same,Changed Maximum Single Impurity,"[1]; 40° C., open, day 10",1.15%
same,stability (in words),[1],poor stability
same,API Content,[1]; day 0,98.30%
same,Changed Maximum Single Impurity,[1]; day 0,0.41%
same,Weight Gain for Vapor Absorption,[3],6.53%
same,hygroscopicity (in words),[3],hygroscopic
C=CC(=O)NC1CCOCC1Nc1ncc2c(n1)-c1cc(C)cnc1N(c1c(Cl)c(OC)cc(OC)c1Cl)C2.O=C(O)C(O)C(O)C(=O)O [L-tartrate crystal form 1],Weight Gain for Vapor Absorption,[3],0.07%
same,hygroscopicity (in words),[3],non-hygroscopic
"C=CC(=O)N[C@H]1CCOC[C@H]1Nc1ncc2c(n1)-c1cc(C)cnc1N(c1c(Cl)c(OC)cc(OC)c1Cl)C2 [Compound represented by Formula I, N-((3S,4S)-3-((6-(2,6-dichloro-3,5-dimethoxyphenyl)-9-methyl-5,6-dihydropyrimido[5,4-c][1,8]naphthyridin-2-yl)amino)tetrahydro-2H-pyran-4-yl)acrylamide]",IC50,[4],5.1 nM
same,inhibition rate on the tumor volume growth of Hep3B,[5]; 50 mg/kg BID×14,73.02%
same,inhibition rate on the tumor weight growth of HepB,[5]; 50 mg/kg BID×14,84.76%
same,inhibition rate on the tumor volume growth of Hep3B,[5]; 100 mg/kg BID×14,86.26%
same,inhibition rate on the tumor weight growth of HepB,[5]; 100 mg/kg BID×14,92.27%
same,inhibition rate on the tumor volume growth of Hep3B,[5]; 200 mg/kg BID×14,90.26%
same,inhibition rate on the tumor weight growth of HepB,[5]; 200 mg/kg BID×14,98.15%
same,body weight loss (routine determination of toxicity),"[5]; during the entire assay, treatment doses 50-200 mg/kg BID×14",none of the animals administered with the compound represented by Formula I showed an obvious weight loss
C=CC(=O)N[C@H]1CCOC[C@H]1Nc1ncc2c(n1)-c1cc(C)cnc1N(c1c(Cl)c(OC)cc(OC)c1Cl)C2 [Crystal form A],API Content,"[1]; 25° C./92.5% RH, open, day 20",99.32%
same,Changed Maximum Single Impurity,"[1]; 25° C./92.5% RH, open, day 20",0.17%
same,API Content,[1]; [7],99.25%
same,Changed Maximum Single Impurity,[1]; [7],0.19%
same,API Content,[1]; [8],99.47%
same,Changed Maximum Single Impurity,[1]; [8],0.17%
same,API Content,"[1]; 60° C., open, day 12",99.14%
same,Changed Maximum Single Impurity,"[1]; 60° C., open, day 12",0.24%
same,stability (in words),[1],relatively good stability
same,API Content,[1]; [9],99.16%
same,Changed Maximum Single Impurity,[1]; [9],0.19%
same,Weight Gain for Vapor Absorption,[3],0.03%
same,hygroscopicity (in words),[3],non-hygroscopic; also recorded: low hygroscopicity
